Publication PMC10218596 (International Journal of Molecular Sciences, 2023)
Where a SMILES comes first, the peptide text is derived from it. Bridges are numbered along the chain shown (N, C = ends).

How the values were obtained:
h[α6N58K/α3]β4 = biological target: T1, h[α6N58K/α3]β4 (Homo sapiens, UniProt P30926+P32297+Q15825, N91K); type: cell-based
T1 construct: formed by splicing the N-terminal extracellular domain of the α6 subunit with the α3 subunit; human nAChR α3 subunit (CHRNA3); expressed in transfected cells; host or cells: Xenopus laevis oocytes injected with cRNA (plasmids from the University of Utah)

hα6/α3β4M160K = biological target: T2, hα6/α3β4M160K (Homo sapiens, UniProt P30926+Q15825, M186K); type: cell-based
T2 construct: formed by splicing the N-terminal extracellular domain of the α6 subunit with the α3 subunit; human nAChR α3 subunit (CHRNA3); expressed in transfected cells; host or cells: Xenopus laevis oocytes injected with cRNA (plasmids from the University of Utah)

human α6/α3β2β3 nAChR = details: cited from earlier work
hα6/α3β4 = biological target: T3, hα6/α3β4 (Homo sapiens, UniProt P30926+P32297+Q15825); assay: cell-based; type: cell-based
T3 construct: splicing the N-terminal extracellular domain of the α6 subunit with the α3 subunit; host or cells: Xenopus laevis oocytes injected with cRNA (1:1)
T3 sequence (Q15825+P32297 fused with the stated changes): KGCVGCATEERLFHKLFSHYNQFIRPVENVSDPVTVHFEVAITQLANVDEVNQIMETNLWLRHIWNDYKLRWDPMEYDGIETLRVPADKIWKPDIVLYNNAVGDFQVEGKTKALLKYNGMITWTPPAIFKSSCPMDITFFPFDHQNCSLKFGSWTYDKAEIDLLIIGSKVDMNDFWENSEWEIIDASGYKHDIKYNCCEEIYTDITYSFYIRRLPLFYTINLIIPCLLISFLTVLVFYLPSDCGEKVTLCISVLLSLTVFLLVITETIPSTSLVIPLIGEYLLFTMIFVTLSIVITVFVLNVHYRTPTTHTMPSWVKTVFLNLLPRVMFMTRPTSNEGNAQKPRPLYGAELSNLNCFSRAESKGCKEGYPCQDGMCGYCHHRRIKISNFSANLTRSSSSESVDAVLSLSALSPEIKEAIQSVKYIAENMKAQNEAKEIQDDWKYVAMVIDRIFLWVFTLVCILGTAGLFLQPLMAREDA
T3 sequence (P30926 22-498): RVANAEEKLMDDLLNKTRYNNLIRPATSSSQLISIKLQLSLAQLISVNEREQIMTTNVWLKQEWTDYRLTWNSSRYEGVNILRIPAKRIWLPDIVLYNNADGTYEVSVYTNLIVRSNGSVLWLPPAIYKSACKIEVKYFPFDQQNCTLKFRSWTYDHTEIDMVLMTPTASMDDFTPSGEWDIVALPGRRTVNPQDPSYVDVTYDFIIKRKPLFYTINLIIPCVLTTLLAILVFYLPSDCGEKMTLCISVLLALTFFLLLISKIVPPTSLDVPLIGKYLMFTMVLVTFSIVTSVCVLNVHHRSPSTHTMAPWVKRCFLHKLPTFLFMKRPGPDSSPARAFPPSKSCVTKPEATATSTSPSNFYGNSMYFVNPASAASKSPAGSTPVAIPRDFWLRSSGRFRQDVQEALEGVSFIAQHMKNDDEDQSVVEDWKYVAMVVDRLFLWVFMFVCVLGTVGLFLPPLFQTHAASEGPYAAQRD

hα6/α3β4Q33E = biological target: T4, hα6/α3β4Q33E (Homo sapiens, UniProt P30926+Q15825, Q59E); type: cell-based
T4 construct: splicing the N-terminal extracellular domain of the α6 subunit with the α3 subunit; mutant made by PCR mutagenesis; host or cells: Xenopus laevis oocytes injected with cRNA

h[α6N110D/α3]β4 = biological target: T5, h[α6N110D/α3]β4 (Homo sapiens, UniProt P30926+P32297+Q15825, N143D); type: cell-based
T5 construct: formed by splicing the N-terminal extracellular domain of the α6 subunit with the α3 subunit; fusion partner: remainder of the human α3 subunit (CHRNA3); expressed in transfected cells; host or cells: Xenopus laevis oocytes injected with cRNA

rat α6/α3β2β3 nAChR = details: cited from earlier work
h[α6K81N/α3]β4 [1] = biological target: T6, h[α6K81N/α3]β4 (Homo sapiens, UniProt P30926+P32297+Q15825, K114N); type: cell-based
T6 construct: formed by splicing the N-terminal extracellular domain of the α6 subunit with the α3 subunit; fusion partner: remainder of the human α3 subunit (CHRNA3); expressed in transfected cells; host or cells: Xenopus laevis oocytes injected with cRNA

h[α6K81N/α3]β4 [2] = type: cell-based, human
h[α6M112V/α3]β4 = biological target: T7, h[α6M112V/α3]β4 (Homo sapiens, UniProt P30926+P32297+Q15825, M145V); type: cell-based
T7 construct: formed by splicing the N-terminal extracellular domain of the α6 subunit with the α3 subunit; fusion partner: remainder of the human α3 subunit (CHRNA3); expressed in transfected cells; host or cells: Xenopus laevis oocytes injected with cRNA
T7 sequence (Q15825+P32297 fused with the stated changes): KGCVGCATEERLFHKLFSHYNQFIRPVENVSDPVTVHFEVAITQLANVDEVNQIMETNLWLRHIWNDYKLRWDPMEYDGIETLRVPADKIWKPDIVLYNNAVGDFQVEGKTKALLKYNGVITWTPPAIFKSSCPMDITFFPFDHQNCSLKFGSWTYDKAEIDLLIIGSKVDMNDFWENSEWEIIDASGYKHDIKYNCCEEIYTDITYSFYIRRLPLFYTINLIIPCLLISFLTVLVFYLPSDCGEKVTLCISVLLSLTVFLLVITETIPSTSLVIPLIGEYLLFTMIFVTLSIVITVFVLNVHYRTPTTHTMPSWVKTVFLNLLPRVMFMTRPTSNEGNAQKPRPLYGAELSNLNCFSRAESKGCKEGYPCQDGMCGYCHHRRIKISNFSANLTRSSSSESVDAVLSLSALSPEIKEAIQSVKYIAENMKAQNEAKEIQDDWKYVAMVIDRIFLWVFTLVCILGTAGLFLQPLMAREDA
T7 sequence (P30926 22-498): as the sequence (P30926 22-498) above

hα6/α3β4I84V = biological target: T8, hα6/α3β4I84V (Homo sapiens, UniProt P30926+Q15825, I110V); type: cell-based
T8 construct: splicing the N-terminal extracellular domain of the α6 subunit with the α3 subunit; mutant made by PCR mutagenesis; host or cells: Xenopus laevis oocytes injected with cRNA

[3] = biological target: T9, h[α6V32L, K61R/α3]β4L107V,V115I (Homo sapiens, UniProt P30926+P32297+Q15825, K94R/L133V/V141I/V65L); assay: cell-based
T9 construct: formed by splicing the N-terminal extracellular domain of the α6 subunit with the α3 subunit; fusion partner: remainder of the human α3 subunit (CHRNA3); expressed in transfected cells; host or cells: Xenopus laevis oocytes injected with cRNA
T9 sequence (Q15825+P32297 fused with the stated changes): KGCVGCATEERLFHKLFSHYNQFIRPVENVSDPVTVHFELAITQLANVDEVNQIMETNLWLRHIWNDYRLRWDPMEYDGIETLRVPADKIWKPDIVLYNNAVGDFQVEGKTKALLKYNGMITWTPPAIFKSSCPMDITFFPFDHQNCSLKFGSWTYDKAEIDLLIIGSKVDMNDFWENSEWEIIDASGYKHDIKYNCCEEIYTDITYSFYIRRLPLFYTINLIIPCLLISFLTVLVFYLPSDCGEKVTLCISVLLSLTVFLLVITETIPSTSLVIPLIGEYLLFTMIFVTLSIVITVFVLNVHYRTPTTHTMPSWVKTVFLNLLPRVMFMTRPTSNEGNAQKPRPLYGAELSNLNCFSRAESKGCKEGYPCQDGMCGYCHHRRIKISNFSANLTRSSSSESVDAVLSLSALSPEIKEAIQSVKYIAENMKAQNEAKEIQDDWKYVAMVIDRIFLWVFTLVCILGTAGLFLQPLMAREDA
T9 sequence (P30926 22-498 L133V/V141I): as the sequence (P30926 22-498) above, with L112V, V120I counted along it

h[α6K7T/α3]β4 = biological target: T10, h[α6K7T/α3]β4 (Homo sapiens, UniProt P30926+P32297+Q15825, K40T); type: cell-based
T10 construct: formed by splicing the N-terminal extracellular domain of the α6 subunit with the α3 subunit; human nAChR α3 subunit (CHRNA3); expressed in transfected cells; host or cells: Xenopus laevis oocytes injected with cRNA (plasmids from the University of Utah)
T10 sequence (Q15825+P32297 fused with the stated changes): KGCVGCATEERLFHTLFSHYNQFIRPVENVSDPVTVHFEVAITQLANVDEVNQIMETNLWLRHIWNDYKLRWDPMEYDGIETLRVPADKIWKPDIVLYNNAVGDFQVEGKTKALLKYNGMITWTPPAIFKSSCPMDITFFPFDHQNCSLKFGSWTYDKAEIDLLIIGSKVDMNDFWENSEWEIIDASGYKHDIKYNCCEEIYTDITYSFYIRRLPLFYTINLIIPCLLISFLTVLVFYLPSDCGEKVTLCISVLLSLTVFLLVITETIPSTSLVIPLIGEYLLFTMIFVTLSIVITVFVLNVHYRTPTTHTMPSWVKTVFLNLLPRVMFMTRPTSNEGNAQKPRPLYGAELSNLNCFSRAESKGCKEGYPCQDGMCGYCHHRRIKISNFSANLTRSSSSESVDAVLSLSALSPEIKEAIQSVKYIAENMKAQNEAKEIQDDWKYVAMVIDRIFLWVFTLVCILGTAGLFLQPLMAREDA
T10 sequence (P30926 22-498): as the sequence (P30926 22-498) above

h[α6R63C/α3]β4 [4] = type: cell-based, human
h[α6R63C/α3]β4 [5] = biological target: T11, h[α6R63C/α3]β4 (Homo sapiens, UniProt P30926+P32297+Q15825, R96C); type: cell-based
T11 construct: formed by splicing the N-terminal extracellular domain of the α6 subunit with the α3 subunit; human nAChR α3 subunit (CHRNA3); expressed in transfected cells; host or cells: Xenopus laevis oocytes injected with cRNA (plasmids from the University of Utah)

h[α6S10A/α3]β4 [6] = type: cell-based, human
h[α6S10A/α3]β4 [7] = biological target: T12, h[α6S10A/α3]β4 (Homo sapiens, UniProt P30926+P32297+Q15825, S43A); type: cell-based
T12 construct: formed by splicing the N-terminal extracellular domain of the α6 subunit with the α3 subunit; human nAChR α3 subunit (CHRNA3); expressed in transfected cells; host or cells: Xenopus laevis oocytes injected with cRNA (plasmids from the University of Utah)

hα6/α3β4V115I = biological target: T13, hα6/α3β4V115I (Homo sapiens, UniProt P30926+Q15825, V141I); assay: cell-based
T13 construct: splicing the N-terminal extracellular domain of the α6 subunit with the α3 subunit; mutant made by PCR mutagenesis; host or cells: Xenopus laevis oocytes injected with cRNA
T13 sequence (Q15825 26-239 limits assumed): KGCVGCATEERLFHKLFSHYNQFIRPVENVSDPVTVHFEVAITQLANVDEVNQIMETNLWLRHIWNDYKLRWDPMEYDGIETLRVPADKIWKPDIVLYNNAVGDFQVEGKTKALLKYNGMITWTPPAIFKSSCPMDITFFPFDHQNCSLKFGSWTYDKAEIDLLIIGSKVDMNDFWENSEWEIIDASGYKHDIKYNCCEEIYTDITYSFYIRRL
T13 sequence (P30926 22-498 V141I): as the sequence (P30926 22-498) above, with V120I counted along it

h[α6I176V/α3]β4 = biological target: T14, h[α6I176V/α3]β4 (Homo sapiens, UniProt P30926+P32297+Q15825, I209V); type: cell-based
T14 construct: formed by splicing the N-terminal extracellular domain of the α6 subunit with the α3 subunit; fusion partner: remainder of the human α3 subunit (CHRNA3); expressed in transfected cells; host or cells: Xenopus laevis oocytes injected with cRNA

rα6/α3β4 = biological target: T15, rα6/α3β4 (Rattus norvegicus, UniProt P04757+P12392+P43143); type: cell-based
T15 construct: formed by splicing the N-terminal extracellular domain of the α6 subunit with the α3 subunit; fusion partner: remainder of the rat α3 subunit (Chrna3); expressed in transfected cells; host or cells: Xenopus laevis oocytes injected with cRNA

hα6/α3β4A37S = biological target: T16, hα6/α3β4A37S (Homo sapiens, UniProt P30926+Q15825, A63S); type: cell-based
T16 construct: splicing the N-terminal extracellular domain of the α6 subunit with the α3 subunit; mutant made by PCR mutagenesis; host or cells: Xenopus laevis oocytes injected with cRNA

h[α6K61R/α3]β4 = biological target: T17, h[α6K61R/α3]β4 (Homo sapiens, UniProt P30926+P32297+Q15825, K94R); assay: cell-based
T17 construct: formed by splicing the N-terminal extracellular domain of the α6 subunit with the α3 subunit; human nAChR α3 subunit (CHRNA3); expressed in transfected cells; host or cells: Xenopus laevis oocytes injected with cRNA (plasmids from the University of Utah)

[8] = read-out: inhibition of the current response to 100 μM ACh

With `CC(C)C[C@@H]1NC(=O)[C@H](CC(=O)O)NC(=O)[C@@H]2CCCN2C(=O)[C@H](Cc2c[nH]cn2)NC(=O)[C@H](CCCCN)NC(=O)[C@H](CC(N)=O)NC(=O)[C@H](CCCNC(=N)N)NC(=O)[C@@H]2CSSC[C@H](NC(=O)CN)C(=O)N[C@@H](CSSC[C@@H](C(N)=O)NC1=O)C(=O)N[C@@H](CO)C(=O)N[C@@H](CC(=O)O)C(=O)N1CCC[C@H]1C(=O)N1CCC[C@H]1C(=O)N2` [TxIB] (H-GCCSDPPCRNKHPDLC-NH2; disulfide 2-8, 3-16) the “Hill Slope” value (h[α6N58K/α3]β4) was 0.9 (0.8–1.1), the “Ratio (change in TxIB IC50 relative to hα6/α3β4)” value (h[α6N58K/α3]β4) was 0.9 and the “Hill Slope” value (hα6/α3β4M160K) was 0.9 (0.7–1.1). For the same compound, the “Ratio (change in TxIB IC50 relative to hα6/α3β4)” value (hα6/α3β4M160K) was 1.5, the blocking effect (human α6/α3β2β3 nAChR) was “significant blocking effect” and the “Hill Slope” value (hα6/α3β4) was 0.8 (0.8–0.9). For the same compound, the “Ratio (change in TxIB IC50 relative to hα6/α3β4)” value (hα6/α3β4) was 1, the blocking effect (hα6/α3β4) was “completely blocked” and the “variation of activity between human and murine nAChRs” value (hα6/α3β4) was “more than 30 fold”. For the same compound, the activity at 10 µM (hα6/α3β4; [8]) was 11 ± 5.9%, the “Hill Slope” value (hα6/α3β4Q33E) was 0.9 (0.7–1.0) and the “Ratio (change in TxIB IC50 relative to hα6/α3β4)” value (hα6/α3β4Q33E) was 0.8. For the same compound, the “Hill Slope” value (h[α6N110D/α3]β4) was 0.9 (0.8–1.0), the “Ratio (change in TxIB IC50 relative to hα6/α3β4)” value (h[α6N110D/α3]β4) was 1.6 and the IC50 (rat α6/α3β2β3 nAChR) was 28 nM. For the same compound, the “Hill Slope” value (h[α6K81N/α3]β4 [1]) was 0.8 (0.7–0.9), the “Ratio (change in TxIB IC50 relative to hα6/α3β4)” value (h[α6K81N/α3]β4 [2]) was 1.2 and the “Hill Slope” value (h[α6M112V/α3]β4) was 0.8 (0.7–0.9). For the same compound, the “Ratio (change in TxIB IC50 relative to hα6/α3β4)” value (h[α6M112V/α3]β4) was 0.6, the “Hill Slope” value (hα6/α3β4I84V) was 0.8 (0.8–0.9) and the “Ratio (change in TxIB IC50 relative to hα6/α3β4)” value (hα6/α3β4I84V) was 1.4. The “Hill Slope” value [3] was 0.8 (0.6–0.9), the “Ratio (change in TxIB IC50 relative to hα6/α3β4)” value [3] was 42 and the “time to full restoration of currents blocked by TxIB” value [3] was at most 1 min. The activity at 10 µM [3, 8] was 60.2 ± 8.66%, the “Hill Slope” value (h[α6K7T/α3]β4) was 0.8 (0.6–0.9) and the “Ratio (change in TxIB IC50 relative to hα6/α3β4)” value (h[α6K7T/α3]β4) was 1.4. The “Ratio (change in TxIB IC50 relative to hα6/α3β4)” value (h[α6R63C/α3]β4 [4]) was 0.9, the “Hill Slope” value (h[α6R63C/α3]β4 [5]) was 0.9 (0. 8–1.1) and the “Ratio (change in TxIB IC50 relative to hα6/α3β4)” value (h[α6S10A/α3]β4 [6]) was 1.2. The “Hill Slope” value (h[α6S10A/α3]β4 [7]) was 0.8 (0.7–0.9), the “Hill Slope” value (hα6/α3β4V115I) was 0.8 (0.7–0.9) and the “Ratio (change in TxIB IC50 relative to hα6/α3β4)” value (hα6/α3β4V115I) was 2.8. For the same compound, the activity at 10 µM (hα6/α3β4V115I; [8]) was 20.1 ± 3.86%, the “Hill Slope” value (h[α6I176V/α3]β4) was 0.8 (0.7–0.9) and the “Ratio (change in TxIB IC50 relative to hα6/α3β4)” value (h[α6I176V/α3]β4) was 0.8. The blocking effect (rα6/α3β4) was “almost no blocking effect”, the “Hill Slope” value (hα6/α3β4A37S) was 0.9 (0.8–1.0) and the “Ratio (change in TxIB IC50 relative to hα6/α3β4)” value (hα6/α3β4A37S) was 1.1. For the same compound, the “Hill Slope” value (h[α6K61R/α3]β4) was 0.8 (0.7–0.9).
